The subject of one test is osteoclast formation. Put plainly: Osteoclast formation assays in vitro. The test is classed as cell-based. The conditions noted are these: data not shown. As to the method: We interrogated CMAP with this gene signature to identify chemicals with similar genomic mechanisms to bisphosphonates. Drug-drug matching was performed by a nonparametric, rank-based algorithm using Kolmogorov-Smirnov statistic. Gene Set Enrichment Analysis (GSEA) examined shared mechanisms of action to reveal both mimics and anti-mimics of a given compound or disease. Of the chemicals displaying the highest enrichment scores, the top two were anti-cancer agents, namely the PARP inhibitor 1,5-isoquinolinediol, and a first-generation EGFR kinase inhibitor tyrphostin AG1478 (FIG. 2). These compounds were confirmed as “true” bisphosphonate mimetics using osteoclast formation assays in vitro. As with bisphosphonates, osteoclast formation was inhibited by both 1,5-isoquinolinediol and tyrphostin AG1478, the latter in a concentration-dependent manner (data not shown).

Test [1] has as its system H3255 (L858R) lung cancer cell line. As to the method: (§1) To validate this, we evaluated the cellular effects of bisphosphonates in EGFR-negative and EGFR-positive cancer cell lines. Mutated cancer cell lines, namely H520, H1666, H3255, HC827, A549, H1650, MCF-7, Caco-2, SW620, and SW480, were grown using standard protocols, and exposed to bisphosphonates. Thereafter, the cells were subject to the MTT assay to assess viability using a commercial kit. Additionally, in certain instances, annexin V staining was performed using a previously described protocol. Quantitative PCR (qPCR) for BCL, Bax, survivin, as well as for the thirteen bisphosphonate signature genes (FIG. 1) was carried out. Protein extracts were subject to SDS-PAGE followed by Western immunoblotting using antibodies to PARP, Akt (total and phosphorylated), Erk (total and phosphorylated), cyclin D1, cyclin B1, PCNA, and GAPDH (Santa Cruz, USA). Flow cytometry and colony forming assays were also performed.
(§2) Based on this prediction, and the common occurrence of these mutations in lung cancer patients, we examined the effect of available approved bisphosphonates on lung cancer cell lines that are driven by the L858R (H3255) or del746-750 (HCC827) mutation (FIGS. 6 and 7).

For test [2], the system named is HCC827 (del746-750) lung cancer cell line. The test is classed as cell-based. As to the method: as §1, §2
In test [3] the test system is lung cancer cell line A549. The conditions noted are these: A549, wild type EGFR, ras mutation driven. As to the method:
as §1

Test [4] deals with H1975 (L858R/T790M) lung adenocarcinoma cell line. Put plainly: Colony formation, H1975. Type of test: cell-based. As to the method: To test this hypothesis, colony formation and cell viability assays were carried out using a L858R/T790M-derived lung adenocarcinoma cell line, H1975.
Test [5] has as its system HCC827 cells. Description: FACS analysis and Western blotting for cell cycle and apoptosis, HCC827. Type of test: cell-based. As for the experimental part: as §1
On the technique in general: Flow cytometry measures light scatter and fluorescence of single cells or particles in a stream.

The subject of test [6] is HCC827 cells. The conditions noted are these: mouse, in vivo. As for the experimental part:
To verify that that the in vitro experiments described above translated to in vivo efficacy, the effect of bisphosphonates and EGFR inhibitors on tumors in mice were evaluated. HCC827 cells (1×10^8) were injected into the right flank of 6- to 8-week-old female BALB/c nu/nu mice. […] A total of 10 treatments were given, with a 48-hour rest period between injections. Tumor volumes were measured during the rest period following each treatment.
To verify the in vivo mechanism of action, Western analysis and immunohistochemistry were performed on tumor samples at the end of the 10-treatment course. For Western analysis, whole cell protein extracts were obtained with radio-immunoprecipitation assay buffer following standard protocols (Santa Cruz Biotechnology). […] Biotinylated anti-rabbit IgG (E0432, Dako) was used as secondary antibody. Staining was visualized using DAB, and slides were counterstained with hematoxylin, dehydrated, and mounted. Bright-field and fluorescent images were captured using a Stereoscope or Axioplan 2 IE microscope (Zeiss).

In another test the target is T1, recombinant Her2 (Homo sapiens, UniProt P04626).
T1 construct: purchased GENWAY
T1 sequence (P04626 23-1255): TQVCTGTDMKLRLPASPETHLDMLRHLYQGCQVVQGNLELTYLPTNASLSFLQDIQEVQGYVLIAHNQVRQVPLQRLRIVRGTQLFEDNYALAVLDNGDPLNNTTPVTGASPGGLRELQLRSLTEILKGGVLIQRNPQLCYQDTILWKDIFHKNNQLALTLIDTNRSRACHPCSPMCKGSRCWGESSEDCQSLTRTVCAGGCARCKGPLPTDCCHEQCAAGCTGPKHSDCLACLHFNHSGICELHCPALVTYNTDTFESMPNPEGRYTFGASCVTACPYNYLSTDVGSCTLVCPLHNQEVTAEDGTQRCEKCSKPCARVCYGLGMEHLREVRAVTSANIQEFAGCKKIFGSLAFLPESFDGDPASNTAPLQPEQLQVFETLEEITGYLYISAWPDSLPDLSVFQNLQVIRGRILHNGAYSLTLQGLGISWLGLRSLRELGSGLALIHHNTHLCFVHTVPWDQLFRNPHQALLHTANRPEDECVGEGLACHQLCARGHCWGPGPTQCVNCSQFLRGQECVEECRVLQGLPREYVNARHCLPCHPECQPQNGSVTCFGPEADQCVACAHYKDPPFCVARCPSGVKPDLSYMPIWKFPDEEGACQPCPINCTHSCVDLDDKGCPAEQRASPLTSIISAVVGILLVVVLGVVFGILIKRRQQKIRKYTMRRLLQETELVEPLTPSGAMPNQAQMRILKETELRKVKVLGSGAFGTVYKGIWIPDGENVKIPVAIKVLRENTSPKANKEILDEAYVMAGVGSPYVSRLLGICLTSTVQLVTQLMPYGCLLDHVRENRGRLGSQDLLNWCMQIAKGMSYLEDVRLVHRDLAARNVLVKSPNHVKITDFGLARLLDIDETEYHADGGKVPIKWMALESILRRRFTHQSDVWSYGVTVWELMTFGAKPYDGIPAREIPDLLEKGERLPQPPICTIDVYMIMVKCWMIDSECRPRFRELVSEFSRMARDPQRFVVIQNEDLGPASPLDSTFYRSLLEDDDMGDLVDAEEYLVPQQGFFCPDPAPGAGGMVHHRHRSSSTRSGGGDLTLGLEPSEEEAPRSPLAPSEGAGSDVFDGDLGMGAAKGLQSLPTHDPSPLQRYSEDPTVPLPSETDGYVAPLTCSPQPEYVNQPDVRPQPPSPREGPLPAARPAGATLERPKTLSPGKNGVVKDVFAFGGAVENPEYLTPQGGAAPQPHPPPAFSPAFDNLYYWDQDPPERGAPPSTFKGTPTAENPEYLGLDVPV
Description: Cell-free in vitro kinase assay using recombinant Her2 (Kinase-Glo). The conditions noted are these: incubated 30 minutes with 50 ng recombinant Her2. Type of test: biochemical. As to the method: We also performed a cell-free in vitro kinase assay to determine if bisphosphonates could inhibit Her2 activity. Briefly, Ert, ZA, Ris, MA, or Til (doses as shown in FIG. 28A) were incubated for 30 minutes with 50 ng recombinant Her2 or EGFR^L858R protein (GENWAY) at 4° C. and tyrosine kinase activity was measured. Following addition of assay buffer (SIGMA) which contained the poly(Glu, Tyr) (4:1) substrate and ATP, the kinase reaction was allowed to proceed for 30 minutes at 30° C. An equal volume of Kinase-Glo substrate (PROMEGA) was then added, and luminescence read manually (TD-20/20, TURNER DESIGN).
For orientation: In Kinase-Glo more light means more ATP remaining.

Test [7] relates to MDA-MB-231 cells. Description: MTT cell viability, MDA-MB-231. The settings on record: MDA-MB-231, overexpress EGFR. The test is classed as cell-based. The source says: (§3) Thereafter, the cells were subject to the MTT assay to assess viability using a commercial kit.
In another test the test system is BT474 cells. Put plainly: MTT cell viability, BT474. Type of test: cell-based. The settings on record: BT474, overexpress Her2.
Description: as §3

In test [8] the test system is HCC827 cells. Description: Colony formation, HCC827. The settings on record: tiludronate 40 μM. The test is classed as cell-based. As to the method:
as §1, §2

Test [9] deals with EGFR-expressing colon cells (SW480). Put plainly: Colony formation (clonogenic assay), SW480. Type of test: cell-based. As for the experimental part:
as §1

The test system of test [10] is EGFR negative (SW620) colon cancer cell line. Description: Colony formation (clonogenic assay), SW620. Type of test: cell-based. As to the method: as §1
Test [11] deals with MDA-MB-231 cells. Put plainly: Colony formation, MDA-MB-231. The test is classed as cell-based. The conditions noted are these: tiludronate 20 μM, data not shown.
Test [12] concerns EGFR-expressing (MDA-MB-231) breast cancer cell line. Description: FACS cell cycle profile (sub-G1), MDA-MB-231. The test is classed as cell-based.
In test [13] the test system is HER2-expressing (BT474) breast cancer cell line. Description: FACS cell cycle profile (sub-G1), BT474. Type of test: cell-based.
For test [14], the system named is non-EGFR, non-HER2-expressing (MDA-MB-453) breast cancer cell line. Description: FACS cell cycle profile (sub-G1), MDA-MB-453. Type of test: cell-based.
Another test concerns the target recombinant EGFR (Homo sapiens, UniProt P00533). The settings on record: 100 μM, incubated 1 hour. The source says: We used a cell-free in vitro kinase assay using recombinant EGF receptor (EGFR) to determine whether bisphosphonates inhibit the EGFR directly or indirectly. […] A kinase reaction was stimulated with the addition of ATP, following which phosphorylation of the substrate […] was detected using a horseradish peroxidase (HRP)-conjugated anti-phosphotyrosine antibody.

“Also recorded” adds a separate entry of the source.

Sequence of recombinant EGFR (P00533 25-1210): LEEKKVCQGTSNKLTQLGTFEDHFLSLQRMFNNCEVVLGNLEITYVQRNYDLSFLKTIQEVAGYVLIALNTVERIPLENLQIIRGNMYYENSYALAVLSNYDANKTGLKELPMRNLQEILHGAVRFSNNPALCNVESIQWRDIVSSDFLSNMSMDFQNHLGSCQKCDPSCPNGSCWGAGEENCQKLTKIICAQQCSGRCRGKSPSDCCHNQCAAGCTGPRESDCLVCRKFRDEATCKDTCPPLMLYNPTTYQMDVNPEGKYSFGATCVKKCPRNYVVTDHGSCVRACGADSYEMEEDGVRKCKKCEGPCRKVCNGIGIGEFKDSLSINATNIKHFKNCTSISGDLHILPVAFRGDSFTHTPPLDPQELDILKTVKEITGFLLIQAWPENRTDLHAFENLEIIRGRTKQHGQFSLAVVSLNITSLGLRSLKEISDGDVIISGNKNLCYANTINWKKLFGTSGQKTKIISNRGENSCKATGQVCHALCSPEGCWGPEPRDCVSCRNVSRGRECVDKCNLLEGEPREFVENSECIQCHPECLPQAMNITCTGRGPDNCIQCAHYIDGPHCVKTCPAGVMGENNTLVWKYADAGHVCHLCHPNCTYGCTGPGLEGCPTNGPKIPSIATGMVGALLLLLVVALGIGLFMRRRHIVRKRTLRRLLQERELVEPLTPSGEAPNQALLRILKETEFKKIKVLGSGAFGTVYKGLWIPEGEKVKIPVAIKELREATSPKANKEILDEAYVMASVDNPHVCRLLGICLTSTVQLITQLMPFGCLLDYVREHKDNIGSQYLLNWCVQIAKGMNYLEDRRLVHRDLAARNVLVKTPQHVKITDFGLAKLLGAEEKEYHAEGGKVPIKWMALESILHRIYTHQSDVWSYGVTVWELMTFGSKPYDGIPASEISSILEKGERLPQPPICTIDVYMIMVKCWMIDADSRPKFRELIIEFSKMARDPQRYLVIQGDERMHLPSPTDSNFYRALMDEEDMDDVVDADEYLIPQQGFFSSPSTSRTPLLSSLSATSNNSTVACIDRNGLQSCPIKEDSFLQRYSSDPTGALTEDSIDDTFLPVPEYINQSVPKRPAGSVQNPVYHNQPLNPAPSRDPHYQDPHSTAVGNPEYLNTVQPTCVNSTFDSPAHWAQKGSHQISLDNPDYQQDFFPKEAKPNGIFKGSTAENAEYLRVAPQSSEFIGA

For `COc1cc2ncnc(Nc3cccc(Cl)c3)c2cc1OC` [tyrphostin AG1478], the osteoclast formation result in the test with osteoclast formation is listed as “inhibited”.
For the molecule `O=P(O)(O)C(NC1CCCCCC1)P(=O)(O)O` [incadronate], the “cell viability / cell survival” value in test [1] and in test [2] was “inhibiting cell survival” throughout.
For the molecule `C#Cc1cccc(Nc2ncnc3cc(OCCOC)c(OCCOC)cc23)c1` [erlotinib], the cell viability entry in test [3] is “poorly responsive”. Also, the colony formation result in test [4] is “did not inhibit colony formation”. Moreover, the “cell cycle and apoptosis” value with HCC827 cells [5] was “mainly increased PARP expression and apoptosis”. In addition, in the test with HCC827 cells [6], the “AKT phosphorylation in tumor samples” value is reported as “inhibited AKT phosphorylation”, the “CD31 expression (blood vessels) in tumors” value was “inhibited CD31 expression” and the “ERK phosphorylation in tumor samples” value was “did not inhibit ERK phosphorylation”. The “Her2 tyrosine kinase activity” value at recombinant Her2 is on record as “inhibit the tyrosine kinase activity of Her2”.
`O=P(O)(O)C(O)(Cc1cccnc1)P(=O)(O)O` [risedronate]: the “cell viability / cell survival” value in [1] and in test [2] was “inhibiting cell survival” in each case. In addition, at recombinant Her2, the “Her2 tyrosine kinase activity” value is reported as “inhibit the tyrosine kinase activity of Her2”.
`NCCCCCC(O)(P(=O)(O)O)P(=O)(O)O` [neridronate]: in test [2], the “cell viability / cell survival” value was “failed to affect HCC827 cell viability”.
Take `O=P(O)(O)C(Sc1ccc(Cl)cc1)P(=O)(O)O` [tiludronate]: the “cell viability / cell survival” value in test [1] and in test [2] was “failed to affect cell viability; also recorded: without effect” each time. The cell viability result in the test on MDA-MB-231 cells [7] and in the test on BT474 cells was “has no effect” throughout. For the same molecule, the colony formation result is “not seen” in the test with HCC827 cells [8]; “has no effect” in [9]; “has no effect” in [10]; “did not affect colony formation” in [4]; “not seen” with MDA-MB-231 cells [11]. In addition, the “sub-G1 fraction (apoptosis)” value in test [12], in [13] and in test [14] was “has no effect” each time. Moreover, the “Her2 tyrosine kinase activity” value at recombinant Her2 is given as “inhibit the tyrosine kinase activity of Her2”.
For the molecule `O=P(O)(O)C(O)(Cc1cnc2ccccn12)P(=O)(O)O` [minodronic acid], the “cell viability / cell survival” value in test [1] and in test [2] was “inhibiting cell survival; also recorded: two most potent” throughout. In addition, at recombinant Her2, the “Her2 tyrosine kinase activity” value was “inhibit the tyrosine kinase activity of Her2”.
Consider `Oc1cccc2c(O)nccc12` [1,5-isoquinolinediol], for which the osteoclast formation entry with osteoclast formation is “inhibited”.
For the molecule `NCCCC(O)(P(=O)(O)O)P(=O)(O)O` [alendronate], at recombinant EGFR, the EGFR kinase activity result was “directly inhibited EGFR kinase activity”. Besides, the “cell viability / cell survival” value in [1] and in test [2] was “inhibiting cell survival” in each case.
On to `NCCC(O)(P(=O)(O)O)P(=O)(O)O` [pamidronate], for which the “cell viability / cell survival” value in test [2] is on record as “failed to affect HCC827 cell viability”.

(Values after patent US20160038516A1, “COMBINATION CANCER THERAPY USING BISPHOSPHONATES AND ANTI-EGFR AGENTS” (Mone Zaidi Consulting, Inc., priority 2012, published 2016).)
